Assay results taken from patent US10745395B2, “Compounds for their use as drugs for the treatment and/or the prevention of infection(s) caused by biofilm-forming bacteria” (CENTRE NATIONAL DE LA RECHERCHE SCIENTIFIQUE, priority 2014, dated 2020).

Experiments:
Type in all cases: cell-based, Pseudomonas aeruginosa
[1] = test system: P. aeruginosa strain PAR 20 biofilm; assay: Early biofilm model, Congo red staining; settings: for absorbance (Congo red, biofilm formation): early biofilm, 0.9 mM, 492 nm
Experimental: (§1) P. aeruginosa biofilm was set-up in sterile plastic 96-well plates with adherent surface (Greiner Bio-One, USA).
(§2) Twenty microliter quantities of the bacterial stock suspensions, prepared as described above, were added to each well followed with 180 μl of sterile TSB. Final concentration of the bacteria was 1×10^8 CFU/ml.
(§3) The plates were centrifuged for 10 minutes at 2000 rpm to sediment bacteria on the bottom of each well and then incubated for 72 hours (37° C., aerobic conditions).
(§4) Biofilm quantity was determined using Congo red dye according to a modified procedure described by Allison et al. (Allison G C, Sutherland I W. A staining technique for bacteria and its correlation to extracellular carbohydrate production. J Microbiol Meth 2, 93-99 (1984)).
(§5) Briefly, at different time points (0, 6, 18, 24, 48 and 72 hours), the culture medium was gently removed from wells by using the pipette and immediately 200 μl of 0.1% Congo red solution was added. The plates were left for 30 minutes at room temperature and then 10 minutes before the end of staining, the plate was centrifuged for 10 minutes at 2000 rpm and then washed twice with buffered saline to remove unbound dye. Absorbance was measured at λ=492 nm wavelength using spectrophotometer (Awarness Technology Inc., Palm City, Fla., USA). All measurements were performed in triplicates and mean values±SD are given.
(§6) Early biofilm model: formation of early biofilm under influence of the tested substances was observed by filling wells of a 96-well plate with 20 μl of P. aeruginosa suspension and 180 μl of TSB, as described above. Tested iminosugars (compounds 1, 2, 3 and 4) were added immediately after setting-up the bacteria at a final concentration of 0.9 mM. Then, the plate was gently mixed and incubated for 48 hours at 37° C.
(§7) Biofilm formation and the number of viable bacteria were checked in parallel in the following time intervals: 0, 0.5, 8, 24, 48 hours, in accordance with the procedure described above. Biofilm thickness was estimated by staining it with Cango Red and measuring optical density while number of viable bacteria was performed using the standard viable count method. (Allison G C, Sutherland I W. A staining technique for bacteria and its correlation to extracellular carbohydrate production. J Microbiol Meth 2, 93-99 (1984)).
(§8) P. aeruginosa suspension cultures in TSB broth alone were used as a control.

[2] = test system: P. aeruginosa strain PAR 50 biofilm; assay: Early biofilm model, Congo red staining; settings: for absorbance (Congo red, biofilm formation): early biofilm, 0.9 mM, 492 nm
Experimental: as §1, §2, §3, §4, §5, §6, §7, §8

[3] = test system: P. aeruginosa strain PAR 5 biofilm; assay: Early biofilm model, Congo red staining; settings: for absorbance (Congo red, biofilm formation): 0.9 mM, 492 nm
Experimental: as §1, §2, §3, §4, §5, §6, §7, §8

[4] = test system: P. aeruginosa strain PAR 5 biofilm; assay: Reduction of biofilm growth (percent vs culture control)
Excerpt: (§9) FIG. 4A represents the effect of the tested compounds (1, 2, 3 and 4) on exopolysaccharide biosynthesis in the early stages and mature P. aeruginosa biofilm formation, strain PAR 5. The abscissa represents the time (in hours) in order to differentiate early biofilm and mature biofilm, and the ordinate represents the percentage of the biofilm reduction.
as §6
(§10) Mature biofilm model: the tested substances were added 48 hours after adherence of bacteria to the wells in a 96-well plate. The growth conditions of P. aeruginosa were exactly the same, as described above for the early biofilm model.
(§11) The effect of the tested compounds (1, 2, 3 and 4) on the reduction of biofilm growth has also been studied on the three P. aeruginosa strains PAR 5, PAR 20, PAR 50.
(§12) (Percent decrease in biofilm thickness was obtained as a mean value from 3 consecutive measurements of the Congo Red stained biofilm using spectrophotometer after addition of the tested iminosugars in comparison to control regarded as 100%).

[5] = test system: P. aeruginosa strain PAR 20; assay: Number of viable bacteria in early and mature biofilm (viable count)
Experimental: as §7
(§13) After the addition of iminosugars (compounds 1, 2, 3 and 4), the biofilm formation and the number of viable bacteria were checked in the following time intervals: 48, 48.5, 56, 72, 96 hours.
(§14) Numbers of viable bacteria contained in the early and mature biofilm were estimated on separate plates with wells filled with tested P. aeruginosa strains as described above (PAR 5, PAR 20, PAR 50).
(§15) At the same time intervals, biofilm content in each well was removed and mixed by multiple pippeting and transferred to sterile tubes. Then decimal dilutions of the bacterial suspension were made in TSB broth, plated on McConkey Agar (Oxoid), and incubated at 37° C. for 24 hours.
(§16) Numbers of colonies grown on platter were counted and total numbers of the viable bacteria calculated as colony forming units (CFU) per ml.
(§17) The results depict logs of CFU/ml for three P. aeruginosa strains: PAR 5, PAR 20 and PAR 50 measured at different time intervals (0 hours, 8 hours, 24 hours, 48 hours, 56 hours, 72 hours and 96 hours). The detection limit is 100 CFU/ml.

[6] = test system: P. aeruginosa strain PAR 5; assay: as above
Experimental: as §7, §13, §14, §15, §16, §17

[7] = test system: P. aeruginosa strain PAR 50; assay: as above
Experimental: as §7, §13, §14, §15, §16, §17

[8] = test system: P. aeruginosa strain PAR 50 biofilm; assay: Reduction of biofilm growth (percent vs culture control)
Excerpt: as §9, with “4C” for “4A”, “50.” for “5.”
as §6, §10, §11, §12

[9] = test system: P. aeruginosa strain PAR 20 biofilm; assay: as above
Excerpt: as §9, with “4B” for “4A”, “20.” for “5.”
as §6, §10, §11, §12

[10] = test system: P. aeruginosa strain PAR 20 biofilm; assay: Mature biofilm model, Congo red staining; settings: for absorbance (Congo red, biofilm development): mature biofilm, compound added 48 h after induction of biofilm
Experimental: as §4, §5, §10, §13

[11] = test system: P. aeruginosa strain PAR 50 biofilm; assay: Mature biofilm model, Congo red staining; settings: for absorbance (Congo red, biofilm development): mature biofilm, compound added 48 h after induction of biofilm
Experimental: as §4, §5, §10, §13

[12] = test system: P. aeruginosa strain PAR 5 biofilm; assay: Mature biofilm model, Congo red staining; settings: for absorbance (Congo red, biofilm development): mature biofilm, compound added 48 h after induction of biofilm
Experimental: as §4, §5, §10, §13

[13] = in comparison with culture control

CCCCCC[C@H]1NC[C@@H](O)[C@H](O)[C@H]1O [Compound 1, α-1-C-hexyl-1,5-dideoxy-1,5-imino-D-xylitol]
absorbance (Congo red, biofilm formation) ([1]; 8 hours): about 1.0 a.u. | absorbance (Congo red, biofilm formation) ([1]; 24 hours): about 1.0 a.u. | absorbance (Congo red, biofilm formation) ([1]; 48 hours): about 0.75 a.u. | effect on formation of an early biofilm [1, 13]: inhibit the formation of an early biofilm | absorbance (Congo red, biofilm formation) ([2]; 8 hours): about 0.5 a.u. | absorbance (Congo red, biofilm formation) ([2]; 24 hours): about 0.8 a.u. | absorbance (Congo red, biofilm formation) ([2]; 48 hours): about 0.9 a.u. | effect on formation of an early biofilm [2, 13]: inhibit the formation of an early biofilm | biofilm formation at 8 hours, 24 hours and 48 hours ([3]; early biofilm): no biofilm formation | absorbance (Congo red, biofilm formation) ([3]; early biofilm, 8 hours): about 0.25 a.u. | absorbance (Congo red, biofilm formation) ([3]; early biofilm, 24 hours): about 0.25 a.u. | absorbance (Congo red, biofilm formation) ([3]; early biofilm, 48 hours): about 0.25 a.u. | effect on formation of an early biofilm [3, 13]: inhibit the formation of an early biofilm | reduction of biofilm growth ([4]; 8 hours of incubation): about 90% | reduction of biofilm growth ([4]; 24 hours of incubation): about 90% | reduction of biofilm growth ([4]; 48 hours of incubation): about 25% | reduction of biofilm growth ([4]; 72 hours of incubation): about 10% | effect on biofilm growth ([4]; notably an early biofilm): can reduce the biofilm growth | number of viable P. aeruginosa ([5]; early biofilm, 0 h): 4 × 10^6 CFU/ml | number of viable P. aeruginosa ([5]; early biofilm, 8 h): 7 × 10^7 CFU/ml | number of viable P. aeruginosa ([5]; early biofilm, 24 h): 1 × 10^8 CFU/ml | number of viable P. aeruginosa ([5]; early biofilm, 48 h): 4 × 10^8 CFU/ml | number of viable P. aeruginosa ([5]; mature biofilm, 56 h): 6 × 10^7 CFU/ml | number of viable P. aeruginosa ([5]; mature biofilm, 72 h): 5 × 10^7 CFU/ml | number of viable P. aeruginosa ([5]; mature biofilm, 96 h): 1 × 10^8 CFU/ml | number of viable P. aeruginosa ([6]; early biofilm, 0 h): 2 × 10^6 CFU/ml | number of viable P. aeruginosa ([6]; early biofilm, 8 h): 3 × 10^7 CFU/ml | number of viable P. aeruginosa ([6]; early biofilm, 24 h): 9 × 10^7 CFU/ml | number of viable P. aeruginosa ([6]; early biofilm, 48 h): 1 × 10^8 CFU/ml | number of viable P. aeruginosa ([6]; mature biofilm, 56 h): 3 × 10^8 CFU/ml | number of viable P. aeruginosa ([6]; mature biofilm, 72 h): 2 × 10^8 CFU/ml | number of viable P. aeruginosa ([6]; mature biofilm, 96 h): 3 × 10^8 CFU/ml | number of viable P. aeruginosa ([7]; early biofilm, 0 h): 8 × 10^7 CFU/ml | number of viable P. aeruginosa ([7]; early biofilm, 8 h): 2 × 10^8 CFU/ml | number of viable P. aeruginosa ([7]; early biofilm, 24 h): 4 × 10^8 CFU/ml | number of viable P. aeruginosa ([7]; early biofilm, 48 h): 3 × 10^8 CFU/ml | number of viable P. aeruginosa ([7]; mature biofilm, 56 h): 2 × 10^9 CFU/ml | number of viable P. aeruginosa ([7]; mature biofilm, 72 h): 1 × 10^9 CFU/ml | number of viable P. aeruginosa ([7]; mature biofilm, 96 h): 1 × 10^9 CFU/ml | reduction of biofilm growth ([8]; 8 hours of incubation): about 30% | reduction of biofilm growth ([8]; 24 hours of incubation): about 30% | reduction of biofilm growth ([8]; 48 hours of incubation): about 0% | reduction of biofilm growth ([8]; 72 hours of incubation): about 0% | effect on biofilm growth ([8]; notably an early biofilm): can reduce the biofilm growth | reduction of biofilm growth ([9]; 8 hours of incubation): about 30% | reduction of biofilm growth ([9]; 24 hours of incubation): about 40% | reduction of biofilm growth ([9]; 48 hours of incubation): about 40% | reduction of biofilm growth ([9]; 72 hours of incubation): about 0% | effect on biofilm growth ([9]; notably an early biofilm): can reduce the biofilm growth | influence on mature biofilm formation [10]: weak influence | absorbance (Congo red, biofilm development) ([10]; 48 hours): about 0.75 a.u. | absorbance (Congo red, biofilm development) ([10]; 56 hours): about 0.6 a.u. | absorbance (Congo red, biofilm development) ([10]; 72 hours): about 1.5 a.u. | absorbance (Congo red, biofilm development) ([10]; 96 hours): about 1.0 a.u. | influence on mature biofilm formation [11]: weak influence | absorbance (Congo red, biofilm development) ([11]; 48 hours): about 1.6 a.u. | absorbance (Congo red, biofilm development) ([11]; 56 hours): about 1.5 a.u. | absorbance (Congo red, biofilm development) ([11]; 72 hours): about 2.4 a.u. | absorbance (Congo red, biofilm development) ([11]; 96 hours): about 1.9 a.u. | influence on mature biofilm formation [12]: weak influence | absorbance (Congo red, biofilm development) ([12]; 48 hours): about 0.7 a.u. | absorbance (Congo red, biofilm development) ([12]; 56 hours): about 1.1 a.u. | absorbance (Congo red, biofilm development) ([12]; 72 hours): about 1.25 a.u. | absorbance (Congo red, biofilm development) ([12]; 96 hours): about 0.5 a.u.
